Laboratory results: patent US20090036512A1, “FUNGICIDAL ACTIVE COMPOUND COMBINATION” (priority 2005, published 2009)

Tested on: Leptosphaeria nodorum
Experiment: Leptosphaeria nodorum test (wheat)/protective
Type: in vivo
Settings: Parastagonospora nodorum, 240 h, protective, evaluation 10 days after inoculation
Method: Leptosphaeria nodorum test (wheat)/protective Solvent: 50 parts by weight of N,N-dimethylacetamide Emulsifier: 1 part by weight of alkylaryl polyglycol ether To prepare a suitable preparation of active compound, 1 part by weight of active compound or active compound combination is mixed with the stated amounts of solvents and emulsifier, and the concentrate is diluted with water to the desired concentration, or a commercial formulation of active compound or active compound combination with water is diluted with water to the desired concentration. To test for protective activity, young plants are sprayed with the active compound preparation at the stated application rate. After the spray coating has dried on, the plants are sprayed with a spore suspension of Leptosphaeria nodorum. The plants remain in an incubation cabin at 20° C. and 100% relative atmospheric humidity for 48 hours. The plants are placed in a greenhouse at a temperature of about 20° C. and a relative atmospheric humidity of 80%. Evaluation is carried out 10 days after inoculation. Here, 0% means an efficacy which corresponds to that of the control, whereas an efficacy of 100% means that no infection is observed.

| SMILES | Emax at 82.5 ppm (application rate 82.5 ppm, read-out: % efficacy (converted)) [%] | Emax at 375 ppm (application rate 375 ppm, read-out: % efficacy) [%] | Emax at 500 ppm (application rate 500 ppm, read-out: % efficacy) [%] | Emax at 25 ppm (application rate 25 ppm, read-out: % efficacy) [%] |
| --- | --- | --- | --- | --- |
| O=C1C2CC=CCC2C(=O)N1SC(Cl)(Cl)Cl (stereo not shown) [Captan, 3a,4,7,7a-tetrahydro-2-[(trichloromethyl)thio]-1H-isoindole-1,3(2H)-dione] | 50 | 25 | 25 | – |
| CON=C(C(=O)OC)c1ccccc1CO/N=C(\C)c1cccc(C(F)(F)F)c1 [Trifloxystrobin, 2-[α-{[(α-methyl-3-trifluoromethyl-benzyl)imino]-oxy}-o-tolyl]-glyoxylic acid methyl ester O-methyloxime] | – | – | – | 50 |
